Source: patent US7776873B2, “Method for treating damage to gastric mucosa” (Yuhan Corporation, priority 2005, dated 2010)

Tests used:
[1] = tested on: human gastric epithelial (AGS) cells infected with H. pylori (ATCC 43504); test: Incidence of H. pylori-induced cell death (MTT assay-1); assay type: cell-based; details: FIG. 1
Method: In order to determine cytoprotective properties of revaprazan against H. pylori infection, gastric mucosal cells were pretreated with revaprazan and rebamipide prior to H. pylori infection, and the incidence of cell death was measured. Rebamipide, known to have cytoprotective properties, was used as a control drug.
The human gastric epithelial (AGS, KCLB 21739) cells were seeded onto 96-well plate at 5×10^4 cells/ml and cultured in RPMI 1640 (Gibco BRL, Grand Island, N.Y., U.S.A.), supplemented with 100 units/mL penicillin, 100 ug/mL streptomycin, and 10% FBS (Fetal Bovine Serum). Revaprazan and rebamipide, dissolved in sterilized water, were added to AGS cells to reach a final concentration of 50 uM and the cells were incubated at 37° C. for 16 hours. To remove RPMI 1640 media, the plate was centrifuged at 24° C., 3000 rpm for 5 minutes and washed three times with PBS (137 mM NaCl, 2.7 mM KCl, 10 mM Na2HPO4, and 2 mM KH2PO4). For inoculation, H. pylori (ATCC 43504) cultures were resuspended in PBS and cocultured with AGS cells at a final concentration of 5×10^8 CFU/ml. After 48 hours of incubation at 37° C., the culture was centrifuged at 24° C., 3000 rpm for 5 minutes to remove the culture medium, i.e., RPMI 1640, and then total viable cell numbers were assessed by MTT (3-[4,5-dimethylthiazol-2-yl]-2,5-diphenyl tetrazolim bromide) assay method. 1 mg/ml of an MTT solution prepared by dissolving MTT (Amresco, Ohio, U.S.A.) in PBS (137 mM NaCl, 2.7 mM KCl, 10 mM Na2HPO4, and 2 mM KH2PO4) was added to each well (50 μl/well), followed by incubation at 37° C. for 4 hours. The supernatant was then removed by centrifugation at 24° C., 3000 rpm for 5 minutes and the formazan grains formed by the viable cells were dissolved in 99.5% dimethyl sulfoxide (DMSO) (Kanto, Tokyo, Japan) (50 μl/well), and the optical intensity was measured at 540 nm using an ELISA reader (TECAN, Maennedorf, Switzerland).

[2] = tested on: ERK (extracellular signal-regulated kinase); test: H. pylori-induced ERK activation (Western blot for p-ERK); assay type: cell-based, human; details: AGS cells, 5 and 25 uM for 16 hours, then H. pylori 30 minutes, FIG. 4
Method: H. pylori-induced cytotoxicity activates MAPK (Mitogen-Activated Protein Kinase), thereby resulting in apoptosis. Therefore, H. pylori infection leads to an increase in phosphorylation of ERK among three major subfamilies of MAPKs.
The human gastric epithelial (AGS, KCLB 21739) cells were seeded in culture dishes at 2×10^6 cells/100 mm^2 and cultured in RPMI 1640 (Gibco BRL, Grand Island, N.Y., U.S.A.), supplemented with 100 units/mL penicillin, 100 ug/mL streptomycin, and 10% FBS (Fetal Bovine Serum). Revaprazan, dissolved in sterilized water, were added to AGS cells to reach final concentrations of 5 and 25 uM and the cells were incubated at 37° C. for 16 hours. RPMI 1640 media was removed and then the cells washed three times with PBS (137 mM NaCl, 2.7 mM KCl, 10 mM Na2HPO4, and 2 mM KH2PO4). For inoculation, H. pylori (ATCC 43504) cultures were resuspended in PBS and cocultured with AGS cells at a final concentration of 5×10^8 CFU/ml. After 30 minutes of incubation at 37° C., the cells were resuspended in lysis buffer (20 mM Tris-Cl (pH 7.5), 150 mM NaCl, 1% Triton X-100, 1 mM EDTA, and protease inhibitor cocktail (Roche, Mannheim, Germany)). The suspension was sonicated for approximately 10 seconds, four times using the BIORUPTOR (Cosmo Bio, Koto-ku, Tokyo), and centrifuged at 4° C., 12000 rpm for 30 minutes. […]

[3] = tested on: ethanol-induced gastric mucosal lesions; test: Preventive effect on in vivo ethanol-induced gastric injury; parameters: species or system Sprague-Dawley male rats; details: rats, 10 mg/kg via oro-gastric tube prior to absolute ethanol 6 ml/kg for 1 hr, FIG. 3B
Excerpt: Six-week old specific-pathogen-free (SPF) Sprague-Dawley male rats (Charles River, Tokyo, Japan) were used for experiments. The rats were fed a sterilized commercial pellet diet (Biogenomics Co., Seoul, Korea), given sterile water ad libitum, and housed in air-conditioned biohazard room with a 12-h light:12-h dark cycle. The rats were divided into four groups; indomethacin-only treatment group, revaprazan-indomethacin treatment group, ethanol-only treatment group and revaprazan-ethanol treatment group. The rats were food-deprived 24 hours, and then administered with 10 mg/kg revaprazan suspended in 0.5% CMC (carboxymethylcellulose) via oro-gastric tube prior to exposure to either indomethacin (40 mg/kg for 12 hrs) or absolute ethanol (6 ml/kg for 1 hr). The stomachs of the rats belonging to the groups treated with indomethacin were excised and the degree of gastric mucosal lesions was observed (see FIG. 3A). Referring to FIG. 3A, in the indomethacin-only treatment group, increased hemorrhagic lesions in gastric mucosa were observed visually. […] Also, the stomachs of the rats belonging to the ethanol treatment groups were excised and the degree of gastric mucosal lesions was observed (see FIG. 3B).

Cc1nc(Nc2ccc(F)cc2)nc(N2CCc3ccccc3C2C)c1C (stereo not shown) [revaprazan, 5,6-dimethyl-2-(4-fluorophenylamino)-4-(1-methyl-1,2,3,4-tetrahydroisoquinolin-2-yl)pyrimidine]
cytoprotective effect against H. pylori-induced cytotoxicity compared with rebamipide ([1]; 50 uM each): equal to or greater than rebamipide
gastric mucosal cytotoxicity by H. pylori infection ([1]; 50 uM pretreatment for 16 hours, then 48-hour H. pylori infection): significantly reduced
effect on ERK activation (p-ERK) [2]: significant, concentration-dependent inhibitory effect
ethanol-induced gastric injury [3]: completely inhibited
